Reference: patent US20050227995A1, “Phenyl sulfoxides and phenyl sulfones” (priority 2002, published 2005)

test system: Aβ release from human cell lines (H4, HEK293) stably overexpressing human APP695 with Swedish double mutation; test: Determination of the inhibition of A-beta release in cell culture (IGEN analyzer detection); type: cell-based; conditions: H4/HEK293 cells overexpressing human APP695 Swedish mutant; supernatant analyzed after 16 h; 0.5% DMSO
From the text: Determination of the Inhibition of A-Beta Release in Cell Culture
In order to be able to measure the inhibition of Aβ release, human cell lines (H4, HEK293) which stably overexpress the 695 amino acid-long, neuronal splice variant of human APP were generated. In order to increase the generated Aβ amount further, in addition a “Swedish” familiar Alzheimer's double mutation in which the lysine and methionine residues respectively at positions 595 and 596 of the molecule APP695 are replaced by the amino acids asparagine and leucine was introduced. The cells were cultivated in Dulbecco's modified Eagles medium (DMEM, with 4500 mg/l glucose; 110 mg/l sodium pyruvate); 5% by volume fetal calf serum (FCS); 1% nonessential amino acids) to which the geniticin G418 selection marker had been added [all cell culture methods were carried out by standard methods; Sambrook, J., Fritsch, E. F., and Maniatis, T. (1989), Molecular cloning: A laboratory manual. Cold Spring Harbour Laboratory Press]. In order to test the effect of substances on the inhibition of APP processing, about 20 000 cells were diluted in a 96 multititer plate. The next day, the culture medium was removed and replaced by biotin- and serum-free medium, in which the substances were diluted to reach a concentration of 10 μM with a dimethyl sulfoxide (DMSO) content of 0.5%. 0.5% DMSO served as control. For substances showing inhibition of the Aβ generation, additionally dose-effect relations were investigated by using different concentrations. After 16 h, the supernatant was removed and analyzed.
b) Detection of Aβ with the IGEN Analyzer
The total amount of Aβ was detected using the following components: 50 μl of cell culture supernatant were mixed with 25 μl of biotinylated antibody 4G8 (recognizes amino acid 17-25 of Aβ), 25 μl of ruthenium complex-labeled antibody 6E10 (recognizes the N terminus of Aβ) and 50 μl of magnetic streptavidin-coupled beads. Aβ40 was detected by using the following components: 50 μl of cell culture supernatant were mixed with 25 μl of biotinylated antibody G2-10 (recognizes the C terminus of Aβ40), 25 μl of ruthenium complex-labeled antibody W02 (recognizes the N terminus of Aβ), and 50 μl of magnetic streptavidin-coupled beads. In parallel, serial dilutions were made with synthetic A040. The samples were shaken at room temperature and then measured using an IGEN analyzer. Typically, each sample was measured three times in at least two independent experiments. The antibodies and solutions used were prepared according to the instructions of the manufacturer of the analyzer, IGEN, Inc. (Gaitersburg, Md., USA). The measurement was likewise carried out as stated by the manufacturer.

SMILES | IC50
CC(COC(=O)N1CCNC(=O)C1)C(c1cc(F)ccc1F)S(=O)(=O)c1ccc(Br)cc1 (single isomer, unassigned) [Example 100] | 10 to 100 nM
C[C@H](COC(=O)N1CCC(O)CC1)[C@@H](c1cc(F)ccc1F)S(=O)(=O)c1ccc(Cl)cc1 (single isomer, unassigned) [Example 43] | 10 to 100 nM
C[C@H](COC(=O)N1CCN(C)CC1)[C@@H](c1cc(F)ccc1F)S(=O)(=O)c1ccc(Cl)cc1 (single isomer, unassigned) [Example 95] | 10 to 100 nM
C[C@H](COC(=O)N1CCC(CCO)CC1)[C@@H](c1cc(F)ccc1F)S(=O)(=O)c1ccc(Cl)cc1 (single isomer, unassigned) [Example 42] | 10 to 100 nM
